We go through 31 compounds from patent publication US12202844B2, “MAP4K1 inhibitors” (Blueprint Medicines Corporation, priority 2021, dated 2025).

Each structure is given as a SMILES string.

The assay concerns the target T1, MAP4K1 (HPK1) (Homo sapiens, UniProt Q92918).
T1 construct: purchased Invitrogen
The assay is described as follows: Inhibition of MAP4K1 biochemical enzymatic activity (EZReader 2 electrophoretic mobility shift). As to conditions: HPK1 (Invitrogen), S6K2tide 1.5 μM, 120 min; ATP 26 μM or 1000 μM (not given). The text has this: MAP4K1 (HPK1) and relevant off-target enzymatic activity was monitored using the Perkin Elmer electrophoretic mobility shift technology platform—the EZReader 2. […] Within the linear, steady-state phase of the kinase enzymatic reaction, the mixed pool of phosphorylated (product) and non-phosphorylated (substrate) peptides was passed through the microfluidic system of the PerkinElmer EZ Reader 2, under an applied electric potential difference. The presence of the phosphate group on the product peptide provided a difference in mass and charge between that of the substrate peptide, resulting in a separation of the substrate and product pools in the sample (Perrin et al. 2010). As the product and substrate peptide mixture passes the lasers within the instrument, these pools are detected (λex=488 nm, λem=568 nm) and resolved as separate peaks. The ratio between these peaks reflects the activity of the compound at that concentration, in that well, under those conditions.
Inhibitors were dissolved in 100% DMSO at a stock concentration of 10 mM. A 100×, 10-point, 4-fold serial dilution of each inhibitor was created in 100% DMSO either manually or on a Hamilton STAR liquid handler, starting at a relevant concentration, usually 1 mM. A volume of 0.130 μL of each concentration was transferred to the relevant wells of a 384-well plate (Greiner 781 201) in duplicate using a TTPLabtech Mosquito nano-litre dispenser. Using a Multidrop Combi, the remaining constituents of the kinase reaction were added to the 130 nL of dosed compound as follows (see table below for final reaction details):
Enzyme activity assays at the ^APPKM for ATP or 1 mM ATP: In each well of a 384-well plate, 0.1-15 nM of untreated enzyme was incubated in a total of 13 μL of buffer (100 mM HEPES pH 7.5, 0.015% Brij 35, 10 mM MgCl2, 1 mM DTT) with 1.5 μM fluorescent peptid and 20-1000 μM ATP, at 25° C., for 60-180 minutes in the presence or absence of a dosed concentration series of compound (1% DMSO final concentration). The kinase reactions were stopped by the addition of 70 μl of Stop buffer (100 mM HEPES pH 7.5, 0.015% Brij 35, 35 mM EDTA and 0.2% of Coating Reagent 3 (Caliper Lifesciences)). The plates were read on a Caliper EZReader 2 as described above.
(A gel shift assay detects complexes by their altered migration in electrophoresis.)

T1 sequence (Q92918 whole entry): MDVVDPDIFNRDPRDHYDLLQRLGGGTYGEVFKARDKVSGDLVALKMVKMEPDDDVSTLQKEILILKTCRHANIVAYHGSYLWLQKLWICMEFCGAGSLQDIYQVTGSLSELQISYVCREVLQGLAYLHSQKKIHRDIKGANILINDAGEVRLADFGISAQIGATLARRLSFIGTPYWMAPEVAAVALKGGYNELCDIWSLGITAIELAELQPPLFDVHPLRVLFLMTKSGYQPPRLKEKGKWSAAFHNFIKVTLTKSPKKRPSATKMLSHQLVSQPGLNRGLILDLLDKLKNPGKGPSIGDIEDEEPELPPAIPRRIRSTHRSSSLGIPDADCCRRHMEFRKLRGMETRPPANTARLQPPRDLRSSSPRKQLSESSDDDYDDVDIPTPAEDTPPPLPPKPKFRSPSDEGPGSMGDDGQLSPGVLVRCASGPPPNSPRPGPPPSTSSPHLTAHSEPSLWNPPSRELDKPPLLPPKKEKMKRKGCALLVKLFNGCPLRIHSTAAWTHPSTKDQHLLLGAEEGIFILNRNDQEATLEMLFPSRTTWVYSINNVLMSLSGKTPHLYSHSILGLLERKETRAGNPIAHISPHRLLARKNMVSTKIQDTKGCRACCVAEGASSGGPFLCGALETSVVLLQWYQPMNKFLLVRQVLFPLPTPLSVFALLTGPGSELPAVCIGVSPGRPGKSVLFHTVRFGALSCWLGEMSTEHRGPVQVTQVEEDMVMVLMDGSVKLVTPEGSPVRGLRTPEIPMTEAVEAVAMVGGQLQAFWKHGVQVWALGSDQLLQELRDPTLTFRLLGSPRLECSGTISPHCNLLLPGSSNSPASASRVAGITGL

Broadly, the IC50 is the concentration that gives 50% inhibition. On to `CCS(=O)(=O)C[C@H](C)[C@@H](C)Oc1ncc(C(C)(C)N)c2cc(Nc3ccc4c(n3)[C@@H](C)C(C)(C)OC4=O)ncc12` (single isomer, unassigned) [Compound 131], for which the IC50 came to 1940 pM.
The same measure for `C[C@H](C[C@@H](C)S(C)(=O)=O)Oc1ncc([C@@](C)(N)C2CC2)c2cc(Nc3ccc4c(n3)[C@@H](C)C(C)(C)OC4=O)ncc12` (single isomer, unassigned) [Compound 137]: 210 pM; for `CCC[C@@](C)(N)c1cnc(O[C@H](C)C[C@@H](C)S(C)(=O)=O)c2cnc(Nc3ccc4c(n3)[C@@H](C)C(C)(C)OC4=O)cc12` (single isomer, unassigned) [Compound 142]: 200 pM.
Consider `CC[C@@](C)(N)c1cnc(O[C@@H](C)CCS(C)(=O)=O)c2cnc(Nc3ccc4c(n3)C3(CC3)[C@@H](C)OC4=O)cc12` (single isomer, unassigned) [Compound 147], for which the 50% inhibitory concentration (IC50) was 460 pM.
With `CC[C@@](C)(N)c1cnc(O[C@H]2C[C@@H](S(C)(=O)=O)C2)c2cnc(Nc3ccc4c(n3)[C@@H](C)[C@@H](C)OC4=O)cc12` (single isomer, unassigned) [Compound 149], the IC50 came out at 250 pM.
`C[C@@H]1OC(=O)c2ccc(Nc3cc4c(C(C)(C)N)cnc(O[C@@H](C)C[C@@H]5CCCS5(=O)=O)c4cn3)nc2[C@H]1C` (single isomer, unassigned) [Compound 154]: the half-inhibitory concentration (IC50) was determined as 620 pM.
For `C[C@@H]1OC(=O)c2ccc(Nc3cc4c(C(C)(C)N)cnc(O[C@@H](C)C[C@@H]5CCCS5(=O)=O)c4cn3)nc2[C@H]1C` (single isomer, unassigned) [Compound 156], the IC50 stood at 2380 pM.
In the case of `C[C@@H]1OC(=O)c2ccc(Nc3cc4c(C(C)(C)N)cnc(O[C@@H](C)C[C@@H]5CCCS5(=O)=O)c4cn3)nc2[C@H]1C` (single isomer, unassigned) [Compound 157], the half-inhibitory concentration (IC50) stood at 1570 pM.
The same measure for `C[C@H](C[C@H]1CCCS1(=O)=O)Oc1ncc(C(C)(C)N)c2cc(Nc3ccc4c(n3)[C@@H](C)C(C)(C)OC4=O)ncc12` (single isomer, unassigned) [Compound 158]: 860 pM.
The same measure for `C[C@H](C[C@H]1CCCS1(=O)=O)Oc1ncc(C(C)(C)N)c2cc(Nc3ccc4c(n3)[C@@H](C)C(C)(C)OC4=O)ncc12` (single isomer, unassigned) [Compound 159]: 420 pM; for `C[C@H](C[C@H]1CCCS1(=O)=O)Oc1ncc(C(C)(C)N)c2cc(Nc3ccc4c(n3)[C@@H](C)C(C)(C)OC4=O)ncc12` (single isomer, unassigned) [Compound 160]: 1610 pM.
Take `C[C@H](C[C@H]1CCCS1(=O)=O)Oc1ncc(C(C)(C)N)c2cc(Nc3ccc4c(n3)[C@@H](C)C(C)(C)OC4=O)ncc12` (single isomer, unassigned) [Compound 161]: the 50% inhibitory concentration (IC50) turned out to be 940 pM.
The same measure for `COC[C@@](C)(N)c1cnc(O[C@H]2C[C@@H](S(C)(=O)=O)C2)c2cnc(Nc3ccc4c(n3)C3(CC3)[C@H](C)OC4=O)cc12` (single isomer, unassigned) [Compound 163]: 220 pM.
For the compound `COC[C@@](C)(N)c1cnc(O[C@H](C)C[C@@H](C)S(C)(=O)=O)c2cnc(Nc3ccc4c(n3)C3(CC3)[C@H](C)OC4=O)cc12` (single isomer, unassigned) [Compound 165], the half-maximal inhibitory concentration (IC50) worked out at 1150 pM.
In the case of `CC[C@@](C)(N)c1cnc(O[C@H](C)CC[S@@+](C)[O-])c2cnc(Nc3ccc4c(n3)[C@@H](C)[C@H](C)OC4=O)cc12` (single isomer, unassigned) [Compound 166], the concentration for half-maximal inhibition (IC50) was found to be 200 pM.
`CC[C@@](C)(N)c1cnc(O[C@H](C)CC[S@+](C)[O-])c2cnc(Nc3ccc4c(n3)[C@@H](C)[C@H](C)OC4=O)cc12` (single isomer, unassigned) [Compound 167]: the IC50 was found to be 190 pM.
Then `C[C@@H]1c2nc(Nc3cc4c(C(C)(C)N)cnc(OCCC[S@@](C)(=N)=O)c4cn3)ccc2C(=O)OC1(C)C` (single isomer, unassigned) [Compound 169], with 600 pM; and `C[C@@H]1c2nc(Nc3cc4c(C(C)(C)N)cnc(O[C@@H](CCS(C)(=O)=O)C(F)(F)F)c4cn3)ccc2C(=O)OC1(C)C` (single isomer, unassigned) [Compound 172], with 1860 pM; and `C[C@@H]1c2nc(Nc3cc4c(C(C)(C)N)cnc(O[C@H](CCS(C)(=O)=O)C(F)(F)F)c4cn3)ccc2C(=O)OC1(C)C` (single isomer, unassigned) [Compound 173], with 9800 pM.
As to `C[C@@H]1OC(=O)c2ccc(Nc3cc4c(C(C)(C)N)cnc(O[C@@H](CCS(C)(=O)=O)C(F)(F)F)c4cn3)nc2[C@H]1C` (single isomer, unassigned) [Compound 174], the IC50 amounted to 5350 pM.
Take `C[C@@H]1OC(=O)c2ccc(Nc3cc4c(C(C)(C)N)cnc(O[C@H](CCS(C)(=O)=O)C(F)(F)F)c4cn3)nc2[C@H]1C` (single isomer, unassigned) [Compound 175]: the IC50 is 23300 pM.
In the case of `CC[C@@](C)(N)c1cnc(O[C@H](C)C[C@@H](C)[S@@](C)(=N)=O)c2cnc(Nc3ccc4c(n3)C3(CC3)[C@@H](C)OC4=O)cc12` (single isomer, unassigned) [Compound 180], the IC50 came out at 3030 pM.
For the compound `CC[C@@](C)(N)c1cnc(O[C@@H](C)CC(C)(C)S(C)(=O)=O)c2cnc(Nc3ccc4c(n3)[C@@H](C)[C@H](C)OC4=O)cc12` (single isomer, unassigned) [Compound 184], the IC50 is 830 pM.
The same measure for `CC[C@@](C)(N)c1cnc(O[C@@H](C)CC(C)(C)S(C)(=O)=O)c2cnc(Nc3ccc4c(n3)[C@@H](C)[C@H](C)OC4=O)cc12` (single isomer, unassigned) [Compound 185]: 220 pM.
The same measure for `CC[C@@](C)(N)c1cnc(O[C@H](C)CC(C)(C)[S@@](C)(=N)=O)c2cnc(Nc3ccc4c(n3)C(C)(C)[C@@H](C)OC4=O)cc12` (single isomer, unassigned) [Compound 187]: 2200 pM.
In the case of `CC[C@@](C)(N)c1cnc(O[C@H](C)CC(C)(C)[S@@](C)(=N)=O)c2cnc(Nc3ccc4c(n3)C(C)(C)[C@@H](C)OC4=O)cc12` (single isomer, unassigned) [Compound 188], the IC50 was 960 pM.
With `CC[C@@](C)(N)c1cnc(O[C@H](C)CC(C)(C)[S@@](C)(=N)=O)c2cnc(Nc3ccc4c(n3)C(C)(C)[C@@H](C)OC4=O)cc12` (single isomer, unassigned) [Compound 189], the concentration for half-maximal inhibition (IC50) was 1050 pM.
The same measure for `CC[C@@](C)(N)c1cnc(O[C@H](C)CC(C)(C)[S@@](C)(=N)=O)c2cnc(Nc3ccc4c(n3)C(C)(C)[C@@H](C)OC4=O)cc12` (single isomer, unassigned) [Compound 190]: 5100 pM; for `CC[C@@](C)(N)c1cnc(O[C@@H](C)CC(C)(C)S(C)(=O)=O)c2cnc(Nc3ccc4c(n3)C(C)(C)[C@H](C)OC4=O)cc12` (single isomer, unassigned) [Compound 191]: 3670 pM; for `CC[C@@](C)(N)c1cnc(O[C@@H](C)CC(C)(C)S(C)(=O)=O)c2cnc(Nc3ccc4c(n3)C(C)(C)[C@H](C)OC4=O)cc12` (single isomer, unassigned) [Compound 192]: 940 pM.
Then `COC[C@@](C)(N)c1cnc(OCCCS(C)(=O)=O)c2cnc(Nc3ccc4c(n3)[C@@H](C)C(C)(C)OC4=O)cc12` (stereo in doubt) [Compound 179], with 490 pM.
